Assay [1] has as its system CT26, LL2, U87, B16, 4T1 tumor cells. As to the kind of experiment: Cell survival (MTT) of tumor cell panel with nifuroxazide and/or virus. In kind it is cell-based. Conditions: nifuroxazide 0-100 μM. From the text: FIGS. 7A-7L show results of treatment of tumor cells with nifuroxazide and oHSV-1. FIG. 7A-7C show cell survival for tumor cells CT26, LL2 and U87 treated with nifuroxazide or HrR3 or KOS. FIG. 7D-7G show cell survival of tumor cells, U87, CT26, 4T1 and LL2, treated first with nifuroxazide and then HrR3 virus. FIG. 7H-7K show combination index (CI) values for tumor cells treated with varying doses of nifuroxazide or the viruses, HrR3 or KOS, or VG12TR, alone or in combination. FIG. 7L is a table presenting the dose reduction index for a combination of nifuroxazide and HrR3 virus.
In this example, the effect of nifuroxazide and oHSV-1 on tumor cells was evaluated. A variety of cancer cell types were treated with nifuroxazide (from 0-100 μM) or HrR3 virus at a MOI from 0 to 12.5 or KOS virus at a MOI from 1 to 12.5. Cell survival was measured.
Tumor cells were treated with nifuroxazide or medium. Following incubation, virus was added and further incubated for 72 (FIG. 7D) or 48 hrs (FIG. 7E-7G). Cytotoxicity was measured by an MTT assay. […]
If FIG. 7H-7K, cells were treated with varying doses of nifuroxazide or the indicated viruses (HrR3, KOS, or VG12TR) alone or in combination for 48 hrs (7J, 7K) or 72 hrs (7H) Cell viability was measured by a MTT assay and combination index (CI) values were calculated using Chour-Talalay analysis. […]

Assay [2] has as its system ICP4. As to the kind of experiment: Western blot of ICP4 in HSV-1 infected microglia cells. In kind it is cell-based. Conditions: G207 infected; 1 μM C16, 1 μM Bay11 or 100 μM AG; 24 hours. The procedure:
FIG. 12B depicts an electrophoresis gel showing total proteins that were harvested from G2O7 infected microglia cells at 24 hours post treatment with either 1 μM of C16, 1 μM of Bay11, or 100 μM of AG. ICP27, ICP4, and […] expression was measured by western blot assay. U87 and MG co-culture were pretreated with 0.5 μM of C16 for 1 hour.
Total protein was harvested with sample buffer (125 mM Tris-HCL, 50% Glycerol, […] and 5% 2-mercaptoethanol) and boiled for 5 minutes. Protein samples were subjected to SDS-PAGE (8% gel), transferred to nitrocellulose membranes and blocked in 5% nonfat milk (Bio Rad) in TBS-Tween 20 (TBS-T) for 1 hour at room temperature. The membranes were then incubated with primary antibody against β-actin at 1:1000 (Cell Signaling, Danvers, Mass.) or anti-STAT1 antibody at 1:1000 (Cell Signaling, Danvers, Mass.) or anti-STAT3 antibody at 1:1000 (Cell Signaling, Danvers, Mass.) or anti-phospho STAT1 antibody (Tyr701) at 1:1000 (Cell Signaling, Danvers, Mass.) or anti-phospho STAT3 antibody (Tyr705) at 1:1500 (Cell Signaling, Danvers, Mass.) or anti-phosphor-eIF2a antibody (ser51) at 1:1000 (Cell Signaling, Danvers, Mass.) or anti-ICP27 antibody at 1:1000 (Abcam, Cambridge, Mass.) or anti-ICP4 antibody at 1:750 (Abcam, Cambridge, Mass.) for overnight at 4° C. […] Band density was measured by using ImageJ software (NIH, Bethesda, Md.). […]
For orientation: A western blot detects proteins with antibodies after separation by electrophoresis.

Turning to `O=C(N/N=C/c1ccc([N+](=O)[O-])o1)c1ccc(O)cc1` [nifuroxazide, Benzoic acid, 4-hydroxy-, [(5-nitro-2-furanyl)metylene]hydrazide], the Cell survival result in assay [1] is “caused cell mortality in all cell lines at higher doses”.
Consider `O=C1Nc2ccc3ncsc3c2/C1=C/c1c[nH]cn1` [C16, 6,8-Dihydro-8-(1H-imidazol-5-ylmethylene)-7H-pyrrolo[2,3-g]benzothiazol-7-one], for which the “upregulated expression of ICP4” value in assay [2] is 1.8 fold.

Source of the values: US20190307820A1, “COMPOSITIONS AND METHODS OF USING STAT1/3 INHIBITORS WITH ONCOLYTIC HERPES VIRUS” (priority 2016, published 2019).
